Experimental findings from US12421225B2, “Heteroaromatic amide derivative and medicament containing the same” (KAKEN PHARMACEUTICAL CO., LTD., priority 2018, dated 2025) are described below.

pIC50: −log10 of the molar value. A value given as a limit tells only on which side of the number the result lay.

The target of one test is human Nav1.7 (Homo sapiens (Human), UniProt Q15858). As to the kind of experiment: Human Nav1.7 inhibitory activity evaluation (automated patch clamp QPatch16X, HEK293A cells stably expressing human Nav1.7 and human Navβ1). In kind it is cell-based. The following applies: human Nav1.7, automated patch clamp. The method, boiled down:
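IC50 calculated from the concentration-response of inward current evoked by the second −10 mV, 50 ms depolarisation, which follows a 15 s conditioning step at roughly 30-40% inactivation and a 100 ms −120 mV interval. Cells: HEK293A expressing human Nav1.7/Navβ1, automated patch clamp, room temperature, 0.1% DMSO final.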
For orientation: The patch-clamp technique gives a direct electrical read-out from membranes.

The target in the next test is human Nav1.5 (Homo sapiens (Human), UniProt Q14524). The test is described as follows: Human Nav1.5 inhibitory activity evaluation (automated patch clamp QPatch16X, HEK293 cells stably expressing human Nav1.5). In kind it is cell-based. The note with it: human Nav1.5, automated patch clamp. How it is done:
Test Example 2: Human Nav1.5 Inhibitory Activity Evaluation
A cell line in which human Nav1.5 was stably expressed in HEK293 cells was used. DMEM supplemeted with 15% fetal bovine serum, 500 μg/ml geneticin, 100 units/ml penicillin, 100 μg/ml streptomycin, 20 mM HEPES was used as culture medium under the conditions of 37° C. and 5% CO2 in T175 flasks to carry out culturing. When 60-80% confluence was reached, a cell suspension of about 0.5-5.0×10^6 cells/mL was prepared. The amount of current through human Nav1.5 was recorded using a fully automatic patch clamp device QPatch16X at room temperature. As the extracellular solution, 145 mM NaCl, 4 mM KCl, 1 mM MgCl2, 2 mM CaCl2, 10 mM Glucose, and 10 mM HEPES at pH 7.4 was used. As the intracellular solution, 135 mM CsF, ⅕ mM EGTA/CsOH, 10 mM HEPES, and 10 mM NaCl at pH 7.3 was used. The test compounds were dissolved in DMSO and diluted with the extracellular solution to attend the DMSO concentration of 0.1% at the time of assay.
The current response was obtained at a sampling frequency of 25 kHz, and noise was removed with a 3 kHz low-pass filter. The holding potential was −80 mV. Correction of the leakage current was carried out by applying a step pulse of −100 mV before the test pulse. In order to investigate human Nav1.5 inhibitory effect of the test compound, test pulses imitating the action potential of cardiomyocytes were continuously given 20 times. The test pulses were given before and after the test compound addition.
The inhibitory activity of the test compound was determined based on the amount of inward current generated by the 20th depolarization pulse, and the 50% inhibitory concentration (IC50) was calculated from the concentration-response curve.

human Nav1.5, sequence (Q14524 whole entry): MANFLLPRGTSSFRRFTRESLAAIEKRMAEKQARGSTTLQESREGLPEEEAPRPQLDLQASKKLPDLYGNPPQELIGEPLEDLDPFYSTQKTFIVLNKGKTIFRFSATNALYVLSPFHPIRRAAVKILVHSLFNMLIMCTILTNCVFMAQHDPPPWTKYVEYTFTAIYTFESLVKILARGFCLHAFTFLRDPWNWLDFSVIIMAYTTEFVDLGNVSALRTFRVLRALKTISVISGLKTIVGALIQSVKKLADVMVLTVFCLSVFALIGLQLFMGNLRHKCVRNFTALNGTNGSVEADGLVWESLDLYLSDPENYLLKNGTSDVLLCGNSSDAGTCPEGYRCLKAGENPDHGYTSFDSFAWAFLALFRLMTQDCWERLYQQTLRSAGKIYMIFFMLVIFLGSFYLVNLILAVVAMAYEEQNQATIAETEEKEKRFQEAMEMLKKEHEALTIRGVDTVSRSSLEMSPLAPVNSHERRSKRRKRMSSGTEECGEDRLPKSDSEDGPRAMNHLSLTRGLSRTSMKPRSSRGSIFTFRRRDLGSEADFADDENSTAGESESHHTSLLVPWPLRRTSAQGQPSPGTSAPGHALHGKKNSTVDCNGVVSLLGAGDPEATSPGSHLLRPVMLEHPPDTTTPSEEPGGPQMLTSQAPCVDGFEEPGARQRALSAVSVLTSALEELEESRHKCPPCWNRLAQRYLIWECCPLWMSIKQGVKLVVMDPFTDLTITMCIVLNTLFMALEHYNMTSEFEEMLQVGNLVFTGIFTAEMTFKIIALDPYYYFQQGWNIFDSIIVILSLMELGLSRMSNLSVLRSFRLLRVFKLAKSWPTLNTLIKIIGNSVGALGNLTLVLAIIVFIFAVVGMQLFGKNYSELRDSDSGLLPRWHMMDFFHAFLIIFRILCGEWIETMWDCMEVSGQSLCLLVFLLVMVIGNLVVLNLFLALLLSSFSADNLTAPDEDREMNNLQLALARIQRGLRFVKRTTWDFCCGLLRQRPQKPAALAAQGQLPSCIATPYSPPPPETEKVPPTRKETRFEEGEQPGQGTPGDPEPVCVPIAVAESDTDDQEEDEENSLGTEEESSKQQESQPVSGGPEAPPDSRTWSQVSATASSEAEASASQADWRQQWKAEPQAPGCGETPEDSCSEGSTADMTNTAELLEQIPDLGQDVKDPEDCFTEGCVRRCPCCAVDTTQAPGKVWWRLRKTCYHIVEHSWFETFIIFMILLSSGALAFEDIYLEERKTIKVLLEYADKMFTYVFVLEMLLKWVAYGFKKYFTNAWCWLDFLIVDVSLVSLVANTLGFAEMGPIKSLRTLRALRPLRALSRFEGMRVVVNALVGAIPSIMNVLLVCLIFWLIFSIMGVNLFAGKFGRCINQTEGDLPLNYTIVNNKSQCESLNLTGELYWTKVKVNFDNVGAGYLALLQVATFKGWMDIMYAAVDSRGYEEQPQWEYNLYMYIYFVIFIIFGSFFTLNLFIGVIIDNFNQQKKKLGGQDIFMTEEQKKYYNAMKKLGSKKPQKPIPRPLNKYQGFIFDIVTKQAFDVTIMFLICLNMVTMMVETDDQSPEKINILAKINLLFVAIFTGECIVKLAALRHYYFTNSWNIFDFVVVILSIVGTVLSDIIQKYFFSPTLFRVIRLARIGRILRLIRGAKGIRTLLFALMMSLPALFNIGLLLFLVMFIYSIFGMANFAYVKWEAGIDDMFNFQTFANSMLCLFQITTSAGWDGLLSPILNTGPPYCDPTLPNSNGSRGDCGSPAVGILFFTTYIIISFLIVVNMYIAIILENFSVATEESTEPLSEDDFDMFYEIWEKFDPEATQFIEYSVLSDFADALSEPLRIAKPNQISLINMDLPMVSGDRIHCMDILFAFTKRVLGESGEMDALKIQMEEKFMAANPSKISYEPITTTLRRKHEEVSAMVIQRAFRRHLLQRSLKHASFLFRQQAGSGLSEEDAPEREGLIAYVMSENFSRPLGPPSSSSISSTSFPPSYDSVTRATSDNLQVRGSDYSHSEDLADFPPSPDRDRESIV
human Nav1.7, sequence (Q15858 whole entry): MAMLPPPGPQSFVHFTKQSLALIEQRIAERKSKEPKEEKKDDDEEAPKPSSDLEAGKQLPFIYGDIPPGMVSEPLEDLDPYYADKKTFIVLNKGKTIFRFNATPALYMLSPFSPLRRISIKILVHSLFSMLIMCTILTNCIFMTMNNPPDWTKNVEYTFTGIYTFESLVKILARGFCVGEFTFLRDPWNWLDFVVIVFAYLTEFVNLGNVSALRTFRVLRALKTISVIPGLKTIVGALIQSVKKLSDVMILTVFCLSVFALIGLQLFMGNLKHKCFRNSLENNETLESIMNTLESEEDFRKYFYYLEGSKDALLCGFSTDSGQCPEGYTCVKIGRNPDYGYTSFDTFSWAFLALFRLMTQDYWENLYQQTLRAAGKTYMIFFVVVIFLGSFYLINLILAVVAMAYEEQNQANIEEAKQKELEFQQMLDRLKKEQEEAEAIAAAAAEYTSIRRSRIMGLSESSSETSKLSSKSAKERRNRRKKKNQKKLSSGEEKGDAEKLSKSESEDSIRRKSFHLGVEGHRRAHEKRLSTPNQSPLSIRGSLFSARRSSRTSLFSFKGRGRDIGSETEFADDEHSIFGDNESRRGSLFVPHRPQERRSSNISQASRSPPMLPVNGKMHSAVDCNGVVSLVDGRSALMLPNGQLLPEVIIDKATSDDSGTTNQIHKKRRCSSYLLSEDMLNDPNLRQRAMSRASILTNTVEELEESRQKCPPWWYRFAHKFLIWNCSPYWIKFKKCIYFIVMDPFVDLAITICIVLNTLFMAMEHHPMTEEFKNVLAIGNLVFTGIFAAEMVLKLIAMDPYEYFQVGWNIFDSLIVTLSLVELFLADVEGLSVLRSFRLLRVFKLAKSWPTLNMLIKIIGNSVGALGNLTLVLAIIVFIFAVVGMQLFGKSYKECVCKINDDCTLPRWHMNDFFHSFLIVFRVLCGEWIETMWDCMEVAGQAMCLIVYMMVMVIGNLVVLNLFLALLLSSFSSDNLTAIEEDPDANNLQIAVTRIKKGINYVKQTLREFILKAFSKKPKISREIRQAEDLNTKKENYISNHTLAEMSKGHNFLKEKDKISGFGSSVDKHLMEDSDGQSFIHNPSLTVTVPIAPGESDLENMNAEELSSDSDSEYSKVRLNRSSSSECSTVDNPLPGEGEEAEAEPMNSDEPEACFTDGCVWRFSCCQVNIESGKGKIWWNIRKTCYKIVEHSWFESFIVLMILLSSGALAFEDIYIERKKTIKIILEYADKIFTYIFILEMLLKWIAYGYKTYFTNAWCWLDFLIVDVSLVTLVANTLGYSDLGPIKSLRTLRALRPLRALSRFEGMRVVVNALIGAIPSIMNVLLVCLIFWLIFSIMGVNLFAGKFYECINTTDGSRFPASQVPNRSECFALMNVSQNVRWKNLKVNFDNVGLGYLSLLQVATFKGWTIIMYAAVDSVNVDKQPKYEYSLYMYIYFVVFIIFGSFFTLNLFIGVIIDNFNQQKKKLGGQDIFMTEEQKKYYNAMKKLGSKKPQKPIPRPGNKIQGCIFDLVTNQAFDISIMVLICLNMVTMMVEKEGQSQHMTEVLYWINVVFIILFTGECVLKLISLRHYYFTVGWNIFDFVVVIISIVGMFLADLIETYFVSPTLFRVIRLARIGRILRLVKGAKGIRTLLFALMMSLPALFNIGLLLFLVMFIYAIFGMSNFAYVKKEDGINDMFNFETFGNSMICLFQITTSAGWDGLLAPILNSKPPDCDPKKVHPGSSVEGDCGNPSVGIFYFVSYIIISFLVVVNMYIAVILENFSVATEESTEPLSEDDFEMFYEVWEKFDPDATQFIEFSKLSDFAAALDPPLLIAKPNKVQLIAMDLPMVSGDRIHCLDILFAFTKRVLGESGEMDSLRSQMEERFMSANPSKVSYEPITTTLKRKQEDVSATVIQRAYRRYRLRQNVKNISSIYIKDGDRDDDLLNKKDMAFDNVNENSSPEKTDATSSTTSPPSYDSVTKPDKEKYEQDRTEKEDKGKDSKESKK
human Nav1.7, sequence (Q07699 19-218 partner): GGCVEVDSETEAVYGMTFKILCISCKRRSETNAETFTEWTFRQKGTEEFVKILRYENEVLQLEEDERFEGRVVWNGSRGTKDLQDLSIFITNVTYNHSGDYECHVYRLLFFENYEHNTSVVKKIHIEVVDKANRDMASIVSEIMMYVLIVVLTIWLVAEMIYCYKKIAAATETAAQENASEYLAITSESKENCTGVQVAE

As for `O=C(N[C@H]1COc2ccc(Cl)cc2C1)c1cc2n(n1)CCC(CNCC(F)(F)F)O2` (single isomer, unassigned) [152 (isomer A)], the negative logarithm of the IC50 (pIC50) against human Nav1.7 is greater than 6.00; on human Nav1.5 it was no more than 5.52.

Take `O=C(N[C@H]1COc2ccc(Cl)cc2C1)c1cc2n(n1)CCC(CN1CCC(F)(F)C1)O2` (single isomer, unassigned) [153 (isomer A)]: the pIC50 against human Nav1.7 was greater than 6.00; against human Nav1.5, 5.52 to 6.00.

In the case of `N#Cc1ccc2c(c1)C[C@@H](NC(=O)c1cc3n(n1)CCC(CSC(F)(F)F)O3)CO2` (single isomer, unassigned) [156 (isomer A)], the negative-log IC50 (pIC50) is greater than 6.00 at human Nav1.7 and no more than 5.52 against human Nav1.5.

As to `O=C(N[C@H]1COc2ccc(Cl)cc2C1)c1cc2n(n1)CCC(C(F)F)O2` (single isomer, unassigned) [158 (isomer A)], the negative logarithm of the IC50 (pIC50) at human Nav1.7 was greater than 6.00; against human Nav1.5, no more than 5.52.

Consider `O=C(N[C@H]1COc2ccc(COCC(F)(F)F)cc2C1)c1cc2n(n1)CCC(C(F)F)O2` (single isomer, unassigned) [163 (isomer A)], for which the negative logarithm of the IC50 (pIC50) at human Nav1.7 is greater than 6.00; against human Nav1.5, 5.52 to 6.00.

With `O=C(N[C@H]1COc2ccc(Cl)cc2C1)c1cc2n(n1)CCC(C(F)(F)F)O2` (single isomer, unassigned) [170 (isomer A)], the pIC50 at human Nav1.7 is greater than 6.00; at human Nav1.5, 5.52 to 6.00.

As for `O=C(N[C@H]1COc2ccc(Cl)cc2C1)c1cc2n(n1)CCC(C(F)(F)F)O2` (single isomer, unassigned) [170 (isomer B)], the pIC50 on human Nav1.7 and against human Nav1.5 was greater than 6.00 each time.

As for `O=C(N[C@H]1COc2ccc(CC(F)F)cc2C1)c1cc2n(n1)CCC(C(F)(F)F)O2` (single isomer, unassigned) [173 (isomer A)], the negative logarithm of the IC50 (pIC50) was greater than 6.00 against human Nav1.7 and no more than 5.52 against human Nav1.5.

`O=C(N[C@H]1COc2ccc(COCC(F)(F)F)cc2C1)c1cc2n(n1)CC(C(F)(F)F)O2` (single isomer, unassigned) [184 (isomer A)]: the pIC50 against human Nav1.7 was greater than 6.00; on human Nav1.5, 5.52 to 6.00.

As for `O=C(N[C@H]1COc2ccc(COCC(F)(F)F)cc2C1)c1cc2n(n1)CC(COCC1CC1)O2` (single isomer, unassigned) [186 (isomer A)], the pIC50 on human Nav1.7 was greater than 5.00; against human Nav1.5 it was no more than 5.52.

For `O=C(N[C@H]1COc2ccc(COCC(F)(F)F)cc2C1)c1cc2n(n1)CC(COCC1CC1)O2` (single isomer, unassigned) [186 (isomer B)], the pIC50 on human Nav1.7 was greater than 6.00; at human Nav1.5 it was 5.52 to 6.00.

Turning to `O=C(N[C@H]1COc2ccc(COCC(F)(F)F)cc2C1)c1cc2n(n1)CC(COCC(F)(F)F)O2` (single isomer, unassigned) [188 (isomer A)], the negative logarithm of the IC50 (pIC50) against human Nav1.7 and on human Nav1.5 was greater than 6.00 each time.

On to `O=C(N[C@H]1COc2ccc(COCC(F)(F)F)cc2C1)c1cc2n(n1)CC(COCC(F)(F)F)O2` (single isomer, unassigned) [188 (isomer B)], for which the pIC50 against human Nav1.7 is greater than 6.00; against human Nav1.5, no more than 5.52.

In the case of `O=C(N[C@H]1COc2ccc(CCOC(F)F)cc2C1)c1cc2n(n1)CC(COCC(F)(F)F)O2` (single isomer, unassigned) [190 (isomer A)], the pIC50 is greater than 6.00 at human Nav1.7 and no more than 5.52 at human Nav1.5.

`Cc1cnc(-c2ccc3c(c2)C[C@@H](NC(=O)c2cc4n(n2)CC(COCC(F)(F)F)O4)CO3)cn1` (single isomer, unassigned) [194 (isomer B)]: the results for the pIC50 on human Nav1.7 and on human Nav1.5 were greater than 6.00 and no more than 5.52, respectively.

Consider `O=C(N[C@H]1COc2ccc(COCC(F)(F)F)cc2C1)c1cc2n(n1)CC(COC(F)(F)F)O2` (single isomer, unassigned) [196 (isomer A)], for which the figures for the pIC50 against human Nav1.7 and at human Nav1.5 were greater than 6.00 and 5.52 to 6.00, respectively.

Consider `O=C(N[C@H]1COc2ccc(COCC(F)(F)F)cc2C1)c1cc2n(n1)CC(COC(F)(F)F)O2` (single isomer, unassigned) [196 (isomer B)], for which the pIC50 is greater than 6.00 at human Nav1.7 and no more than 5.52 against human Nav1.5.

With `O=C(N[C@H]1COc2ccc(CC(F)F)cc2C1)c1cc2n(n1)CC(COC(F)(F)F)O2` (single isomer, unassigned) [198 (isomer B)], the negative-log IC50 (pIC50) is greater than 6.00 at human Nav1.7 and no more than 5.52 at human Nav1.5.

For `N#Cc1ccc2c(c1)C[C@@H](NC(=O)c1cc3n(n1)CC(CSCC(F)(F)F)O3)CO2` (single isomer, unassigned) [200 (isomer A)], the results for the pIC50 at human Nav1.7 and against human Nav1.5 were greater than 5.00 and no more than 5.52, respectively.

On to `N#Cc1ccc2c(c1)C[C@@H](NC(=O)c1cc3n(n1)CC(CSCC(F)(F)F)O3)CO2` (single isomer, unassigned) [200 (isomer B)], for which the pIC50 against human Nav1.7 is greater than 6.00; against human Nav1.5 it was no more than 5.52.

Consider `N#Cc1ccc2c(c1)C[C@@H](NC(=O)c1cc3n(n1)CC(CCOCC1CC1)O3)CO2` (single isomer, unassigned) [202 (isomer A)], for which the pIC50 is greater than 6.00 against human Nav1.7 and no more than 5.52 at human Nav1.5.

Turning to `N#Cc1ccc2c(c1)C[C@@H](NC(=O)c1cc3n(n1)CC(CCOCC1CC1)O3)CO2` (single isomer, unassigned) [202 (isomer B)], the pIC50 on human Nav1.7 and at human Nav1.5 was greater than 6.00 each time.

As to `COc1ncc(-c2ccc3c(c2)C[C@@H](NC(=O)c2cc4n(n2)CC(CCOCC2CC2)O4)CO3)cn1` (single isomer, unassigned) [204 (isomer B)], the pIC50 was greater than 6.00 on human Nav1.7 and 5.52 to 6.00 on human Nav1.5.

For the molecule `O=C(N[C@H]1COc2ccc(-c3ccccn3)cc2C1)c1cc2n(n1)CC(CCOCC(F)(F)F)O2` (single isomer, unassigned) [207 (isomer B)], the values for the pIC50 on human Nav1.7 and at human Nav1.5 were greater than 6.00 and 5.52 to 6.00, respectively.

In the case of `N#Cc1ccc2c(c1)C[C@@H](NC(=O)c1cc3n(n1)CC(CCOC(F)(F)F)O3)CO2` (single isomer, unassigned) [209 (isomer B)], the negative-log IC50 (pIC50) on human Nav1.7 and against human Nav1.5 was greater than 6.00 throughout.

For `Cn1ccc(-c2ccc3c(c2)C[C@@H](NC(=O)c2cc4n(n2)CC(CCOC(F)(F)F)O4)CO3)n1` (single isomer, unassigned) [213 (isomer A)], the values for the pIC50 against human Nav1.7 and against human Nav1.5 were greater than 6.00 and no more than 5.52, respectively.

Regarding `O=C(N[C@H]1COc2ccc(COCC(F)(F)F)cc2C1)c1cc2n(n1)CC(CCOC(F)F)O2` (single isomer, unassigned) [215 (isomer A)], the negative logarithm of the IC50 (pIC50) was greater than 6.00 at human Nav1.7 and 5.52 to 6.00 against human Nav1.5.

Turning to `O=C(N[C@H]1COc2ccc(CCOC(F)F)cc2C1)c1cc2n(n1)CC(CCOC(F)F)O2` (single isomer, unassigned) [217 (isomer A)], the pIC50 on human Nav1.7 was greater than 6.00; against human Nav1.5 it was 5.52 to 6.00.

Regarding `O=C(N[C@H]1COc2ccc(CCOC(F)F)cc2C1)c1cc2n(n1)CC(CCOC(F)F)O2` (single isomer, unassigned) [217 (isomer B)], the pIC50 on human Nav1.7 and on human Nav1.5 was greater than 6.00 throughout.

For the molecule `O=C(N[C@H]1COc2ccc(CC(F)F)cc2C1)c1cc2n(n1)CC(CCOC(F)F)O2` (single isomer, unassigned) [219 (isomer A)], the pIC50 against human Nav1.7 is greater than 5.00; at human Nav1.5 it was no more than 5.52.

In the case of `O=C(N[C@H]1COc2ccc(CC(F)F)cc2C1)c1cc2n(n1)CC(CCOC(F)F)O2` (single isomer, unassigned) [219 (isomer B)], the values for the pIC50 against human Nav1.7 and against human Nav1.5 were greater than 6.00 and 5.52 to 6.00, respectively.

On to `Cn1cc(-c2ccc3c(c2)C[C@@H](NC(=O)c2cc4n(n2)CC(CCOC(F)F)O4)CO3)cn1` (single isomer, unassigned) [221 (isomer A)], for which the figures for the negative-log IC50 (pIC50) against human Nav1.7 and against human Nav1.5 were greater than 5.00 and no more than 5.52, respectively.

Regarding `Cn1cc(-c2ccc3c(c2)C[C@@H](NC(=O)c2cc4n(n2)CC(CCOC(F)F)O4)CO3)cn1` (single isomer, unassigned) [221 (isomer B)], the negative logarithm of the IC50 (pIC50) at human Nav1.7 is greater than 6.00; on human Nav1.5, 5.52 to 6.00.

Consider `O=C(N[C@H]1COc2ccc(-c3cnccn3)cc2C1)c1cc2n(n1)CC(CCOC(F)F)O2` (single isomer, unassigned) [223 (isomer B)], for which the pIC50 on human Nav1.7 was greater than 6.00; on human Nav1.5 it was 5.52 to 6.00.

Consider `O=C(N[C@H]1COc2ccc(COCC(F)(F)F)cc2C1)c1cc2n(n1)CC(CCOCC(F)F)O2` (single isomer, unassigned) [224 (isomer A)], for which the negative-log IC50 (pIC50) against human Nav1.7 was greater than 6.00; against human Nav1.5 it was no more than 5.52.

On to `O=C(N[C@H]1COc2ccc(COCC(F)(F)F)cc2C1)c1cc2n(n1)CC(CCOCC(F)F)O2` (single isomer, unassigned) [224 (isomer B)], for which the pIC50 is greater than 6.00 against human Nav1.7 and 5.52 to 6.00 against human Nav1.5.

Consider `O=C(N[C@H]1COc2ccc(Cl)cc2C1)c1cc2n(n1)CC(CCNCC(F)(F)F)O2` (single isomer, unassigned) [226 (isomer A)], for which the negative logarithm of the IC50 (pIC50) at human Nav1.7 is greater than 6.00; against human Nav1.5, no more than 5.52.

A word on the pIC50: it is the negative decadic logarithm of the IC50, by convention in mol/L.
